{"source": "patent US8003648B2", "about": "“Heterocyclic GPR40 modulators” (Amgen Inc., priority 2006, dated 2011)", "target": "T1, human GPR40 (Homo sapiens, UniProt O14842)", "T1 construct": "host or cells: CHO cells", "T1 sequence (O14842 whole entry)": "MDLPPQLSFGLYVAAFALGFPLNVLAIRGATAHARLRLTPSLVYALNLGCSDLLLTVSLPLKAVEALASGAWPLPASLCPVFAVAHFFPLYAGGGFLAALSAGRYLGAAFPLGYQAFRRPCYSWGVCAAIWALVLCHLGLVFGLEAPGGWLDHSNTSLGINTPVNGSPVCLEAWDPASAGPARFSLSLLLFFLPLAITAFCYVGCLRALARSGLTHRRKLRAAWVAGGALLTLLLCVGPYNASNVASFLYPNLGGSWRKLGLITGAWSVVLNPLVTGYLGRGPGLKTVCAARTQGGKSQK", "experiment": "Cell-based aequorin assay using human GPR40", "settings": "activation of human GPR40; CHO cells stably transfected with GPR40 and Aequorin; 0.01% HSA; aequorin luminescence", "procedure": "Cell-based aequorin assays were employed to characterize the modulatory activity of compounds on the GPR40 signaling pathway. In an exemplary assay, CHO cells were stably transfected with both GPR40 and Aequorin (Euroscreen). Cells were detached from the tissue culture dish with 2 mL of trypsin (0.25% (w/v)). Trypsinization was halted with 28 mL of Hanks Buffered Salt Solution containing 20 mM Hepes (H/HBSS) and 0.01% fatty acid-free human serum albumin (HSA). Coelantrazine is added to 1 ug/mL, and the cells were incubated for 2 hours at room temperature. Compounds were dissolved in DMSO for preparation of 10 mM stock solutions. Compounds were diluted in H/HBSS containing 0.01% HSA. Serial dilutions of the test compounds were prepared to determine dose response.\nAequorin luminescence measurements were made using an EG&G Berthold 96-well luminometer, and the response was measured over a 20 second interval after cells and compounds were mixed. The maximum relative light units was plotted to determine dose response. The EC50 (effective concentration to reach 50% maximal response) was determined from the dose response plot.\nTable 1 presents representative data (EC50 values) obtained for exemplary compounds of the invention for the activation of human GPR40. […]"}
{"compound": "Cc1c(Cl)cccc1-c1cccc(COc2ccc(C(CC(=O)O)c3ccon3)cc2)c1", "note": "(stereo not shown) [Example 1, 3-(4-(3-(3-Chloro-2-methylphenyl)benzyloxy)phenyl)-3-(isoxazol-3-yl)propanoic acid]", "values": [{"measurement": "EC50", "result": "10 to 100", "unit": "nM"}]}
{"compound": "O=C(O)C[C@@H](c1ccc(OCc2cccc(-c3ccc(C(F)(F)F)cc3)c2)cc1)c1ccon1", "note": "[Example 2, (S)-3-(4-(3-(4-(Trifluoromethyl)phenyl)benzyloxy)phenyl)-3-(isoxazol-3-yl)propanoic acid]", "values": [{"measurement": "EC50", "result": "10 to 100", "unit": "nM"}]}
{"compound": "O=C(O)C[C@H](c1ccc(OCc2cccc(-c3ccc(C(F)(F)F)cc3)c2)cc1)c1ccon1", "note": "[Example 3, (R)-3-(4-(3-(4-(Trifluoromethyl)phenyl)benzyloxy)phenyl)-3-(isoxazol-3-yl)propanoic acid]", "values": [{"measurement": "EC50", "result": "1000 to 10000", "unit": "nM"}]}
{"compound": "CCOc1cc(Cl)ccc1-c1ccc(COc2ccc([C@H](CC(=O)O)c3ccon3)cc2)cc1", "note": "[Example 4, (S)-3-(4-(4-(4-Chloro-2-ethoxyphenyl)benzyloxy)phenyl)-3-(isoxazol-3-yl)propanoic acid]", "values": [{"measurement": "EC50", "result": "10 to 100", "unit": "nM"}]}
{"compound": "CCOc1cc(Cl)ccc1-c1ccc(COc2ccc([C@@H](CC(=O)O)c3ccon3)cc2)cc1", "note": "[Example 5, (R)-3-(4-(4-(4-Chloro-2-ethoxyphenyl)benzyloxy)phenyl)-3-(isoxazol-3-yl)propanoic acid]", "values": [{"measurement": "EC50", "result": "1000 to 10000", "unit": "nM"}]}
{"compound": "Cc1nc(-c2ccc(C(F)(F)F)cc2)sc1COc1ccc([C@@H](CC(=O)O)c2ccon2)cc1", "note": "[Example 6, (R)-3-(Isoxazol-3-yl)-3-(4-((4-methyl-2-(4-(trifluoromethyl)phenyl)thiazol-5-yl)methoxy)phenyl)propanoic acid]", "values": [{"measurement": "EC50", "result": "100 to 1000", "unit": "nM"}]}
{"compound": "Cc1nc(-c2ccc(C(F)(F)F)cc2)sc1COc1ccc([C@H](CC(=O)O)c2ccon2)cc1", "note": "[Example 7, (S)-3-(Isoxazol-3-yl)-3-(4-((4-methyl-2-(4-(trifluoromethyl)phenyl)thiazol-5-yl)methoxy)phenyl)propanoic acid]", "values": [{"measurement": "EC50", "result": "10 to 100", "unit": "nM"}]}
{"compound": "Cc1nc(-c2ccc(C(F)(F)F)cc2)sc1COc1ccc(C(CC(=O)O)C2=NOCC2)cc1", "note": "(stereo not shown) [Example 8]", "values": [{"measurement": "EC50", "result": "100 to 1000", "unit": "nM"}]}
{"compound": "Cc1nc(-c2ccc(C(F)(F)F)cc2)sc1COc1ccc([C@H](CC(=O)O)C2=NOCC2)cc1", "note": "[Example 9, (S)-3-(Dihydroisoxazol-3-yl)-3-(4-((4-methyl-2-(4-(trifluoromethyl)phenyl)thiazol-5-yl)methoxy)phenyl)propanoic acid]", "values": [{"measurement": "EC50", "result": "10 to 100", "unit": "nM"}]}
{"compound": "Cc1ccc(-c2nc(C)c(COc3ccc([C@H](CC(=O)O)C4=NOCC4)cc3)s2)cc1", "note": "[Example 10, (S)-3-(Dihydroisoxazol-3-yl)-3-(4-((4-methyl-2-(4-methylphenyl)thiazol-5-yl)methoxy)phenyl)propanoic acid]", "values": [{"measurement": "EC50", "result": "100 to 1000", "unit": "nM"}]}
{"compound": "COc1ccc(-c2nc(COc3ccc([C@H](CC(=O)O)c4ccon4)cc3)no2)cc1", "note": "[Example 11, (S)-3-(Isoxazol-3-yl)-3-(4-((5-(4-methoxyphenyl)-1,2,4-oxadiazol-3-yl)methoxy)phenyl)propanoic acid]", "values": [{"measurement": "EC50", "result": "1000 to 10000", "unit": "nM"}]}
{"compound": "O=C(O)C[C@@H](c1ccc(OCc2nc(-c3ccc(OCc4ccc(Cl)cc4)cc3)no2)cc1)c1ccon1", "note": "[Example 12, (S)-3-(4-((3-(4-(4-Chlorobenzyloxy)phenyl)-1,2,4-oxadiazol-5-yl)methoxy)phenyl)-3-(isoxazol-3-yl)propanoic acid]", "values": [{"measurement": "EC50", "result": "100 to 1000", "unit": "nM"}]}
{"compound": "Cc1ccc(-c2ccc(COc3ccc([C@H](CC(=O)O)c4ccon4)cc3)s2)cc1", "note": "[Example 13, (S)-3-(Isoxazol-3-yl)-3-(4-((5-p-tolylthiophen-2-yl)methoxy)phenyl)propanoic acid]", "values": [{"measurement": "EC50", "result": "10 to 100", "unit": "nM"}]}
{"compound": "CCCCc1ccc(-c2nc(C)c(COc3ccc([C@H](CC(=O)O)C4=NOCC4)cc3)s2)cc1", "note": "[Example 14, (S)-3-(4-((2-(4-Butylphenyl)-4-methylthiazol-5-yl)methoxy)phenyl)-3-(4,5-dihydroisoxazol-3-yl)propanoic acid]", "values": [{"measurement": "EC50", "result": "10 to 100", "unit": "nM"}]}
{"compound": "Cc1ccc(-c2cc(COc3ccc([C@H](CC(=O)O)c4ccon4)cc3)c(C)o2)cc1", "note": "[Example 15, (S)-3-(Isoxazol-3-yl)-3-(4-((2-methyl-5-p-tolylfuran-3-yl)methoxy)phenyl)propanoic acid]", "values": [{"measurement": "EC50", "result": "10 to 100", "unit": "nM"}]}
{"compound": "Cn1nc(-c2ccc(C(F)(F)F)cc2)cc1COc1ccc([C@H](CC(=O)O)c2ccon2)cc1", "note": "[Example 16, (S)-3-(Isoxazol-3-yl)-3-(4-((1-methyl-3-(4-(trifluoromethyl)phenyl)-1H-pyrazol-5-yl)methoxy)phenyl)propanoic acid]", "values": [{"measurement": "EC50", "result": "100 to 1000", "unit": "nM"}]}
{"compound": "Cc1ccc(COc2ccc([C@H](CC(=O)O)c3ccon3)cc2)cc1-c1ccc(CC(C)C)cc1", "note": "[Example 17, (S)-3-(4-(3-(4-Isobutyl)-phenyl-4-methylbenzyloxy)phenyl)-3-(isoxazol-3-yl)propanoic acid]", "values": [{"measurement": "EC50", "result": "100 to 1000", "unit": "nM"}]}
{"compound": "CCCCc1ccc(-c2cc(COc3ccc([C@H](CC(=O)O)c4ccon4)cc3)ccc2C)cc1", "note": "[Example 18, (S)-3-(4-(3-(4-Butyl)-phenyl-4-methylbenzyloxy)phenyl)-3-(isoxazol-3-yl)propanoic acid]", "values": [{"measurement": "EC50", "result": "100 to 1000", "unit": "nM"}]}
{"compound": "CS(=O)(=O)c1cc(COc2ccc([C@H](CC(=O)O)c3ccon3)cc2)ccc1OC(F)(F)F", "note": "[Example 19, (S)-3-(4-(3-(Methylsulfonyl)-4-(trifluoromethoxy)benzyloxy)-phenyl)-3-(isoxazol-3-yl)propanoic acid]", "values": [{"measurement": "EC50", "result": "1000 to 10000", "unit": "nM"}]}
{"compound": "O=C(O)C[C@@H](c1ccc(OCc2ccc(OC(F)(F)F)c(C3=CCCC3)c2)cc1)c1ccon1", "note": "[Example 20, (S)-3-(4-(3-Cyclopentenyl-4-(trifluoromethoxy)benzyloxy)-phenyl)-3-(isoxazol-3-yl)propanoic acid]", "values": [{"measurement": "EC50", "result": "10 to 100", "unit": "nM"}]}
{"compound": "O=C(O)C[C@@H](c1ccc(OCc2ccc(Cl)c(C(F)(F)F)c2)cc1)c1ccon1", "note": "[Example 21, (S)-3-(4-(4-Chloro-3-(trifluoromethyl)benzyloxy)phenyl)-3-(isoxazol-3-yl)propanoic acid]", "values": [{"measurement": "EC50", "result": "10 to 100", "unit": "nM"}]}
{"compound": "O=C(O)C[C@@H](c1ccc(OCc2ccc(OC(F)(F)F)c(OC(F)(F)F)c2)cc1)c1ccon1", "note": "[Example 22, (S)-3-(4-(3,4-Bis(trifluoromethoxy)benzyloxy)phenyl)-3-(isoxazol-3-yl)propanoic acid]", "values": [{"measurement": "EC50", "result": "10 to 100", "unit": "nM"}]}
{"compound": "O=C(O)C[C@@H](c1ccc(OCc2ccc(OC(F)(F)F)c(C3CCCC3)c2)cc1)c1ccon1", "note": "[Example 23, (S)-3-(4-(3-Cyclopentyl-4-(trifluoromethoxy)benzyloxy)-phenyl)-3-(isoxazol-3-yl)propanoic acid]", "values": [{"measurement": "EC50", "result": "10 to 100", "unit": "nM"}]}
{"compound": "C=C(C)c1cc(COc2ccc([C@H](CC(=O)O)c3ccon3)cc2)ccc1OC(F)(F)F", "note": "[Example 24, (S)-3-(4-(3-(Prop-1-en-2-yl)-4-(trifluoromethoxy)benzyloxy)-phenyl)-3-(isoxazol-3-yl)propanoic acid]", "values": [{"measurement": "EC50", "result": "10 to 100", "unit": "nM"}]}
{"compound": "O=C(O)C[C@@H](c1ccc(OCc2ccc(OC(F)(F)F)c(Br)c2)cc1)c1ccon1", "note": "[Example 25, (S)-3-(4-(3-bromo-4-(trifluoromethoxy)benzyloxy)phenyl)-3-(isoxazol-3-yl)propanoic acid]", "values": [{"measurement": "EC50", "result": "10 to 100", "unit": "nM"}]}
{"compound": "CC(C)c1cc(COc2ccc([C@H](CC(=O)O)c3ccon3)cc2)ccc1C(C)(C)C", "note": "[Example 26, (S)-3-(4-(4-tert-Butyl-3-isopropylbenzyloxy)phenyl)-3-(isoxazol-3-yl)propanoic acid]", "values": [{"measurement": "EC50", "result": "100 to 1000", "unit": "nM"}]}
{"compound": "O=C(O)C[C@@H](c1ccc(OCc2cccc(NC(=O)c3ccc(C(F)(F)F)cc3)c2)cc1)c1ccon1", "note": "[Example 27, (S)-3-(4-(3-(4-(Trifluoromethyl)benzamido)benzyloxy)phenyl)-3-(isoxazol-3-yl)propanoic acid]", "values": [{"measurement": "EC50", "result": "100 to 1000", "unit": "nM"}]}
{"compound": "O=C(O)C[C@@H](c1ccc(OCc2ccc(C3=CCCC3)c(OC(F)(F)F)c2)cc1)c1ccon1", "note": "[Example 28, (S)-3-(4-(4-Cyclopentenyl-3-(trifluoromethoxy)benzyloxy)-phenyl)-3-(isoxazol-3-yl)propanoic acid]", "values": [{"measurement": "EC50", "result": "10 to 100", "unit": "nM"}]}
{"compound": "CC(C)(C)C(=O)Nc1cccc(COc2ccc([C@H](CC(=O)O)c3ccon3)cc2)c1", "note": "[Example 30, (S)-3-(4-(3-Pivalamidobenzyloxy)phenyl)-3-(isoxazol-3-yl)propanoic acid]", "values": [{"measurement": "EC50", "result": "1000 to 10000", "unit": "nM"}]}
{"compound": "O=C(O)C[C@@H](c1ccc(OCc2cccc(Sc3ccc(C(F)(F)F)cc3)c2)cc1)c1ccon1", "note": "[Example 31, (S)-3-(4-(3-(4-(Trifluoromethyl)phenylthio)benzyloxy)phenyl)-3-(isoxazol-3-yl)propanoic acid]", "values": [{"measurement": "EC50", "result": "10 to 100", "unit": "nM"}]}
{"compound": "O=C(O)C[C@@H](c1ccc(OCc2cccc(NS(=O)(=O)c3ccc(C(F)(F)F)cc3)c2)cc1)c1ccon1", "note": "[Example 32, (S)-3-(4-(3-(4-Trifluoromethylphenylsulfonamido)benzyloxy)-phenyl)-3-(isoxazol-3-yl)propanoic acid]", "values": [{"measurement": "EC50", "result": "100 to 1000", "unit": "nM"}]}
{"compound": "O=C(O)C[C@@H](c1ccc(OCc2cccc(S(=O)(=O)c3ccc(C(F)(F)F)cc3)c2)cc1)c1ccon1", "note": "[Example 33, (S)-3-(4-(3-(4-(Trifluoromethyl)phenylsulfonyl)benzyloxy)-phenyl)-3-(isoxazol-3-yl)propanoic acid]", "values": [{"measurement": "EC50", "result": "100 to 1000", "unit": "nM"}]}
{"compound": "CC(C)(C)OC(=O)N1CC=C(c2cccc(COc3ccc([C@H](CC(=O)O)c4ccon4)cc3)c2)CC1", "note": "[Example 34, (S)-3-(4-(3-(1-(Tert-butoxycarbonyl)-1,2,3,6-tetrahydropyridin-4-yl)benzyloxy)phenyl)-3-(isoxazol-3-yl)propanoic acid]", "values": [{"measurement": "EC50", "result": "1000 to 10000", "unit": "nM"}]}
{"compound": "C=C(C)c1ccc(COc2ccc([C@H](CC(=O)O)c3ccon3)cc2)cc1OC(F)(F)F", "note": "[Example 35, (S)-3-(4-(4-(Prop-1-en-2-yl)-3-(trifluoromethoxy)benzyloxy)-phenyl)-3-(isoxazol-3-yl)propanoic acid]", "values": [{"measurement": "EC50", "result": "10 to 100", "unit": "nM"}]}
